The values that follow come from patent US9585957B2, “Adenosine receptor agonists and antagonists to modulate T cell responses” (THE JOHNS HOPKINS UNIVERSITY, priority 2007, dated 2017).

Each structure is given as a SMILES string. Read-outs that look alike come from different tables or passages of the source.

The subject of one experiment is A.E7 T cell clones. Put plainly: Cytokine production and CD25 expression of A.E7s stimulated with anti-CD3 and anti-CD28 in the presence of CGS. Format: cell-based. Particulars: for IC50: T-cell. The protocol:
Studies were conducted to determine the effects of A2a receptor stimulation on T cell function. A.E7 is a clonotypic CD4', Th1 T cell clone specific for pigeon cytochrome c (PCC) and is maintained as previously described (Powell, […]. & Schwartz, R. H. Inhibition of cell cycle progression by rapamycin induces T cell clonal anergy even in the presence of costimulation. J Immunol 162, 2775-84 (1999)). A.[…] were rendered anergic with anti-CD3 or by incubation with APC, PCC and 1 pM CGS-21680. For antibody induced anergy, 6-well plates were previously coated with anti-CD3 three hours prior to stimulation and washed with PBS. For mock stimulations, the well was not coated with anti-CD3. A.[…] were incubated in the coated well overnight at 37° C., then harvested and washed extensively and rested (24 hours for CAMP measurement, 4-6 days for proliferation and cytokine production). […] To assess proliferation to PCC, T cells were extensively washed and 5×10^6 cells were added to 50×10^4 irradiated BIO.A splenocytes and increasing doses of PCC in triplicate in a 96-well flat-bottomed plate. After 48 hours, cells were pulsed with [^3H] thymidine and harvested 16 hrs later. Tritium incorporation was determined by a Packard Matrix 96 direct beta counter (Packard bioscience). […] All conditions were done in triplicate and were cultured overnight. Supernatant was collected and assessed for cytokine levels (eBioscience for IL-2, IFN-y, TNF-a; R&D Systems for GM-CSF) as per manufacturers' instructions. For each sample, multiple dilutions of the supernatant were assayed and concentration was determined based upon the dilution that best fit the most linear aspect of the standard curve. For CD25 measurements, the cells used for cytokine production were stained with anti-CD25, harvested and measured by flow cytometry.

Experiment [1] deals with ERK phosphorylation, jun B, AP-1. Put plainly: Western blot for phospho-ERK and jun B, and EMSA for AP-1, after T cell stimulation with or without CGS. Type of experiment: cell-based, mice. The protocol:
For phospho-ERK and total ERK Western blots, splenocytes from 6.5^+ mice were stimulated overnight with 10 ug/mL HA class II peptide then harvested and enriched for CD4^+ T cells. CD4^+ purified T cells were then stimulated in 500 uL with soluble anti-CD3 (10 ug/mL) and soluble anti-CD28 (1:20 dilution).
Nuclear extracts from CD4^+ purified 6.5^+ T cells that were prepared. The AP-1 probe was: 5′-CGCTTGATGACTCAGCCGGAA-3′. The NFkB probe was: 5′-AGTTGAGGGGACTTTCCCAGGC-3′.

For experiment [2], the system named is 6.5+ T cells in C3HA mice. Put plainly: Survival of C3HA mice after adoptive transfer of 6.5+ T cells (mouse model of autoimmunity). Format: in vivo. The protocol: Clonotypic CD4^+ T cells were harvested from 6.5^+ transgenic mice. The unfractionated population was resuspended to contain 1.2×10^6 6.5^+ T cells in 200 uL of HBSS for i.v. injection through the tail vein of C3HA mice. […] The percentage of CD4^+, 6.5^+, Thy 1.1^−, Thy 1.2^− clonotypic T cells was determined by flow cytometric analysis. CD44 level was also analyzed to ensure that these clonotypic T cells were not activated in donor mice and were naive in phenotype. The cells were washed three times with HBSS and the unfractionated population was resuspended to contain the appropriate number of clonotypic T cells in 200 uL of HBSS for i.v. injection through the tail vein of C3HA.
A survival curve was generated from two separate experiments for a total of 17 mice for each condition.

Take `CCNC(=O)[C@H]1O[C@@H](n2cnc3c(N)nc(NCCc4ccc(CCC(=O)O)cc4)nc32)[C@H](O)[C@@H]1O` [CGS, 2-p-(2-carboxyethyl)phenethyl-amino-5-N-ethyl-carboxamidoadenosine]: the cytokine production result with A.E7 T cell clones (A.E7 T cell clones activated with anti-CD3 and anti-CD28 in the presence of CGS) is “dose-dependent inhibition”. The IC50 in the experiment on A.E7 T cell clones (read-out: ID50, inhibition of GM-CSF production) was 9.1 nM; in the experiment with A.E7 T cell clones (read-out: ID50, inhibition of IFN-γ production), 760 nM; in the experiment on A.E7 T cell clones (read-out: ID50, inhibition of IL-2 production), 4.7 nM; with A.E7 T cell clones (read-out: ID50, inhibition of TNF-α production), 100 nM. In the experiment with A.E7 T cell clones (anti-CD3 and anti-CD28, 20 nM CGS (FIG. 1d)), the “production of the chemokine MIP-1α” value is “not inhibited”. Moreover, the “TCR-induced CD25 expression” value with A.E7 T cell clones (anti-CD3 and anti-CD28, 1 μM CGS (FIG. 1b)) is given as “did not inhibit”. Besides, the IL-2 production entry with A.E7 T cell clones (anti-CD3 and anti-CD28 in the presence of the A2a receptor agonist, 20 nM CGS (FIG. 1d)) is reported as “markedly decreased”. Besides, the ERK phosphorylation result in experiment [1] (Signal 1+2, 1 μM CGS (FIG. 3d)) is on record as “inhibited ERK phosphorylation”. Moreover, the “jun B expression in the nucleus” value in experiment [1] (T cell stimulation, 1 μM CGS (FIG. 3e)) was “reduced jun B expression”. The “AP-1 binding (EMSA)” value in experiment [1] (T cell stimulation, 1 μM CGS (FIG. 3f)) is recorded as “lowered AP-1 binding”. For the same compound, in experiment [2] (C3HA mice receiving LAG-3 null T cells, 4 day treatment with CGS (FIG. 5c)), the “effect on mice receiving LAG-3 null T cells” value is reported as “no affect”. Besides, in experiment [2] (C3HA mice receiving Wt T cells, 4 day treatment with CGS (FIG. 5c)), the “mice in which death was prevented, Wt T cells” value came to 100%. For the same compound, the “long-term survival of mice” value in experiment [2] (C3HA mice, lethal dose of 6.5+ T cells, CGS 2.5 mg/kg i.p. twice daily for four days after transfer (FIG. 4a)) is given as 80%. The “protection of mice given A2a receptor KO T cells” value in experiment [2] (C3HA recipients given A2a receptor KO 6.5+ T cells, CGS treatment (FIG. 4d)) is “fails to protect”.
